Tests used:
Arabidopsis seedlings = conditions: for effect on number and length of lateral roots: MS with 6 mM N containing 0.15% butanol, OE, WT and KO seedlings, measured 6 days after transfer
Protocol: (A) Four-day-old seedlings were transferred to Murashige and Skoog (MS) containing 6 mM N for 12 days. […] Root length and number were measured 6 days after transfer. Values are means±SD (n=30).
To test N response on plates, surface-sterilized seeds were germinated in MS (1×) agar plates supplement with 3% sucrose for 4 days and then were transferred to modified MS agar plates containing 0.1, 0.6, 2, 6, 60 mM N, NO3^−:NH4^−=2:1). […] Seedlings were grown on plates in a vertical orientation in a growth chamber under the conditions of 16-h light/8-h dark, 23/21° C., cool fluorescent white light (200 mmol m^−2 s^−1). Alternatively, seeds were also directly germinated in agar plates with the same conditions as described above.

S6K = S6K binding to lipids immobilized on a nitrocellulose filter; set-up: species or system Arabidopsis; conditions: 10 mg lipid spotted; leaf proteins 1.2 mg/ml; anti-human p70 S6K antibody
Protocol: FIG. 5 depicts S6K levels under different N levels. (A) and (B) S6K protein levels detected by immunoblotting with anti-p70 S6K and anti-phospho-p70 S6K (Thr389) antibodies, respectively. Four-day-old seedlings were transferred to MS plates with the indicated N levels for 10 days. The same amount of proteins ([…]/lane) was separated by 10% SDS-PAGE and transferred to a nitrocellulose membrane. (C) S6K binding to PA immobilized on filter. Lipid (10 mg) was spotted on nitrocellulose filter, and incubated with leaf proteins (1.2 mg/ml), followed by blotting with anti-human p70 S6K antibody. (D) S6K binding to liposomes composed of PA (PA:PC=1:2), PC, or PI only (650 nmol of total lipids). (E) Total S6K, but not phosphorylated S6K binding to PA:PC liposomes. Proteins were extracted from WT and PLDε-altered seedlings. Bound proteins were separated by SDS-PAGE and detected by blotting with anti-human p70 S6K antibody or anti-human p389 p70 S6K antibody.
PLDε: PA-Protein Binding by Blotting and Liposomal Assays. S6K binding to lipids immobilized on a nitrocellulose filter was performed as described (Zhang, W., Qin, C., Zhao, J. & Wang, X. (2004) Proc. Natl. Acad. Sci. USA. 101, 9508-9513; Stevenson, J. M., Perera, I. Y. & Boss, W. F. (1998) J Biol Chem. 273, 22761-22767) with minor modifications. […] Protein binding to liposome was detected by immunoblotting as described above.

| S6K binding to lipid immobilized on filter (S6K) | Compound | effect on biomass accumulation (Arabidopsis seedlings; 1-butanol treatment, data not shown) | effect on number and length of lateral roots (Arabidopsis seedlings) |
| --- | --- | --- | --- |
|  | CCCCO [1-Butanol, 1-butanol] | inhibited | inhibited |
| bound | phosphatidic acid [PA] |  |  |
|  | CCC(C)O (stereo not shown) [2-butanol] |  | no growth inhibitory effect |
